Reference: patent publication US5955576A, “Inhibitors of thrombosis” (Corvas International, Inc., priority 1995, dated 1999)
Where two headings read alike, the source gives them in different places. Peptide text beside a SMILES is read from it. * marks the point of attachment. Hydrocinnamoyl = O=C(CCc1ccccc1)*; Tos = Cc1ccc(S(=O)(=O)*)cc1

Tests used:
[1] = Pharmacokinetics after oral and i.v. administration in dogs; format: in vivo, dog
Method: The pharmacodynamic and pharmacokinetic parameters of the compound of Example 34 (and same compound described in Example 91) were evaluated after oral administration in dogs. Adult beagle dogs (9-12 kg) were housed individually in standard cages, and were fed a standard certified commercial diet and tap water ad libitum. Dogs were given an oral dose of either 10 mg/kg or 20 mg/kg test compound, in 55 ml deionized water, via a gastric tube, followed by a water rinse. In a separate protocol, 5 mg/kg of test compound, in 5 ml 0.9% sodium chloride, were administered by fast bolus i.v. injection through an indwelling saphenous vein catheter. The same dogs were used for all doses and both routes of administration, with a one week wash out period between use of the dogs for the different doses and protocols. […]
(§1) The blood levels of test compound were measured by extracting the compound from plasma, separation by HPLC, and post-column derivatization with a fluorogenic functional group. The clotting time of blood was measured using an APTT assay, which measures the prolongation of the activated partial thromboplastin time (APTT) by the test compound. […]
The systemic bioavailability of the test compound administered by the oral route was calculated by comparing the AUC values (area under curve describing level of compound in blood over time) after i.v. and oral administration. […]

[2] = system: activated partial thromboplastin time (APTT); test: APTT clotting time of blood samples after oral dosing in dogs; format: in vivo, dog; conditions: both doses (10 and 20 mg/kg)
Method: The pharmacodynamic and pharmacokinetic parameters of the compound of Example 34 (and same compound described in Example 91) were evaluated after oral administration in dogs. Adult beagle dogs (9-12 kg) were housed individually in standard cages, and were fed a standard certified commercial diet and tap water ad libitum. Dogs were given an oral dose of either 10 mg/kg or 20 mg/kg test compound, in 55 ml deionized water, via a gastric tube, followed by a water rinse. In a separate protocol, 5 mg/kg of test compound, in 5 ml 0.9% sodium chloride, were administered by fast bolus i.v. injection through an indwelling saphenous vein catheter. The same dogs were used for all doses and both routes of administration, with a one week wash out period between use of the dogs for the different doses and protocols.
Blood samples were collected during the experimental period from the cephalic vein using sodium citrate (0.38% final concentration) as anticoagulant (nine volumes blood to one volume sodium citrate). […]
as §1

plasmin = plasmin (Homo sapiens, UniProt P00747); test: Plasmin assay, chromogenic substrate S-2251; format: biochemical; conditions: purified human enzyme, 30 minute incubation, HBSA pH 7.5
Method: (§2) The buffer used for all assays was HBSA (10 mM HEPES, pH 7.5, 150 mM sodium chloride, 0.1% bovine serum albumin). […] Following a 30 minute incubation at ambient temperature, 50 μL of the substrate at the concentrations specified below, was added to the wells yielding a final total volume of 200 μL. The initial velocity of chromogenic substrate hydrolysis was measured by the change in absorbance at 405 nm using a Thermo Max® Kinetic Microplate Reader over a 5 minute period in which less than 5% of the added substrate was utilized.
Plasmin catalytic activity was determined using the chromogenic substrate, S-2251 [D-valyl-L-leucyl-L-lysine-p-nirtoanilide dihydrochloride], which was obtained from Kabi Diagnostica.

thrombin = thrombin (Homo sapiens, UniProt P00734); test: Thrombin assay, chromogenic substrate Pefachrome t-PA; format: biochemical; conditions: purified human enzyme, 30 minute incubation, HBSA pH 7.5
Method: The buffer used for all assays was HBSA (10 mM HEPES, pH 7.5, 150 mM sodium chloride, 0.1% bovine serum albumin). […] Following a 30 minute incubation at ambient temperature, 50 μL of the substrate at the concentrations specified below, was added to the wells yielding a final total volume of 200 μL.
Thrombin catalytic activity was determined using the chromogenic substrate Pefachrome t-PA (CH3 SO2 -D-hexahydrotyrosine-glycyl-L-arginine-p-nitroaniline, obtained from Pentapharm Ltd.).

factor Xa = target: T1, factor Xa (Homo sapiens, UniProt P00742); test: Factor Xa assay, chromogenic substrate S2765; format: biochemical; conditions: purified human enzyme, 30 minute incubation, HBSA pH 7.5
T1 construct: Human factor Xa was prepared from purified human factor X obtained from Enzyme Research Laboratories; purchased Enzyme Research Laboratories
Method: as §2
Factor Xa catalytic activity was determined using the substrate, S2765 (N-α-benzyloxycarbonyl-D-argininyl-L-glycyl-L-arginine-p-nitroanilide dihydrochloride) which was obtained from Kabi Diagnostica. […] Human factor Xa was prepared from purified human factor X obtained from Enzyme Research Laboratories according to the method described by Bock, P. E. et al., Archives of Biochem. Biophys. 273: 375 (1989). The enzyme was diluted into HBSA prior to the assay in which the final concentration was 0.5 nM.

[3] = system: FeCl3 -induced platelet-dependent arterial thrombosis; format: in vivo; conditions: rat carotid artery
From the text: Res., 60: 269-280 (1990). […] Res., 60: 269-280 (1990). […] The animals were then euthanized.

Sequence of plasmin (P00747 581-810 limits assumed): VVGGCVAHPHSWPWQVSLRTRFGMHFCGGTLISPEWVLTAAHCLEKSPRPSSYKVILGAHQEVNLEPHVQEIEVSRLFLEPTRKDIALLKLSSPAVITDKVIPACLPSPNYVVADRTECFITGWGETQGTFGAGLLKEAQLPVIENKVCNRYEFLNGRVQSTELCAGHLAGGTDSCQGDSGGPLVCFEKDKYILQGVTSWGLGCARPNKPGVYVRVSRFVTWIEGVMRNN
Sequence of plasmin (P00747 97-580 partner limits assumed): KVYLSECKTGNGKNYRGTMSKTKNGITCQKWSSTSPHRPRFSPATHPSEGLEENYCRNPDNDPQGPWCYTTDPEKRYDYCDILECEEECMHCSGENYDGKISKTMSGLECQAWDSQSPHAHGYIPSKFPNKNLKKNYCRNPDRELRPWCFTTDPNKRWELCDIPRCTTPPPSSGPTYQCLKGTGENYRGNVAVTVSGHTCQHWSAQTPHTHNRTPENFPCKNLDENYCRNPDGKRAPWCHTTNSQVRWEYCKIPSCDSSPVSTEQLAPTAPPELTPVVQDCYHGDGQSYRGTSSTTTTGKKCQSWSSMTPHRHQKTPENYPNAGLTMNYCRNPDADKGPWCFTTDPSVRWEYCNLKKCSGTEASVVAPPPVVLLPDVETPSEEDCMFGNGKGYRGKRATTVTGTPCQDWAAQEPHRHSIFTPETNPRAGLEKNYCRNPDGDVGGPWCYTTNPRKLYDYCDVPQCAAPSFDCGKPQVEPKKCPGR
T1 sequence (P00742 235-488 limits assumed): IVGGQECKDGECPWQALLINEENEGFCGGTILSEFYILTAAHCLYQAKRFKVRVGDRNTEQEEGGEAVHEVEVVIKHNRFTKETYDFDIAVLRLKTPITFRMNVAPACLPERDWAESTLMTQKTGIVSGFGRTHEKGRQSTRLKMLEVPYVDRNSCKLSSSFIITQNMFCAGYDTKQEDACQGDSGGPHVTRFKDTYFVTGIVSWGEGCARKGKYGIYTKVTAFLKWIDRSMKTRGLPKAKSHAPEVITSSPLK
T1 sequence (P00742 41-179 partner limits assumed): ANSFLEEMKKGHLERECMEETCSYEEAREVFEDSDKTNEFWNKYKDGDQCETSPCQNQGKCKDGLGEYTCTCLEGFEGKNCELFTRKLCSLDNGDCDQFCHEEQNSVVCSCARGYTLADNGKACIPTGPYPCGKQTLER

| Molecule | IC50 (plasmin) [nM] | IC50 (thrombin) [nM] | IC50 (factor Xa) [nM] | other results |
| --- | --- | --- | --- | --- |
| CCCC(CCC)C(=O)N[C@@H](CC(=O)OC)C(=O)N1CCC[C@H]1C(=O)N[C@H](C=O)CCCNC(=N)N.O=C(O)C(F)(F)F [Example 34, N-(2-propylpentanoyl)-L-aspartyl-beta-(methyl ester)-L-prolyl-L-argininal, trifluoroacetate salt] | – | – | – | time to maximum blood level of compound [1]: 45 to 60 min; duration of elevated APTT [2]: up to two hours; time to significant elevation of APTT [2]: 20 to 30 min |
| CC(C)CCC(=O)N[C@@H](CC(=O)O)C(=O)N1CCC[C@H]1C(=O)N[C@H](C=O)CCCNC(=N)N [4MeV-Asp-Pro-Arg-al, N-(4-methylpentanoyl)-L-aspartyl-L-prolyl-L-argininal] | 396 | – | – | – |
| CCCC(CCC)C(=O)N[C@@H](CC(=O)OC)C(=O)N1CCC[C@H]1C(=O)N[C@H](C=O)CCCNC(=N)N [2PrPent-Asp(OCH3)-Pro-Arg-al, N-(2-propylpentanoyl)-L-aspartyl-β-(methyl ester)-L-prolyl-L-argininal] | 261 | – | – | – |
| N-phenylsulfonyl-L-aspartyl-(β-methyl ester)-L-prolyl-L-argininal [BzlSO2 -Asp(OCH3)-Pro-Arg-al] | – | 5 | 30 | – |
| COC(=O)C[C@H](NS(=O)(=O)c1ccc2ccccc2c1)C(=O)N1CCC[C@H]1C(=O)N[C@H](C=O)CCCNC(=N)N [2-NpSO2 -Asp(OCH3)-Pro-Arg-al, N-(2-naphthylsulfonyl)-L-aspartyl-(β-methyl ester)-L-prolyl-L-argininal] | 106 | 0.62 | 4.3 | – |
| CCCC(CCC)C(=O)N[C@@H](CC(=O)O)C(=O)N1CCC[C@H]1C(=O)N[C@H](C=O)CCCNC(=N)N [2PrPent-Asp-Pro-Arg-al, N-(2-propylpentanoyl)-L-aspartyl-L-prolyl-L-argininal] | 254 | – | – | – |
| N=C(N)NCCC[C@@H](C=O)NC(=O)[C@@H]1CCCN1C(=O)[C@H](CC(=O)O)NC(=O)CCc1ccccc1 [HCA-Asp-Pro-Arg-al, N-(3-phenylpropionyl)-L-aspartyl-L-prolyl-L-argininal] (Hydrocinnamoyl-Asp-Pro-Arg-aldehyde) | 481 | – | – | Incidence of Occlusion ([3]; Group1, 25 μg/kg/min i.v. infusion): 5/6; Incidence of Occlusion ([3]; Group2, 50 μg/kg/min i.v. infusion): 1/5; Incidence of Occlusion ([3]; Group3, 100 μg/kg/min i.v. infusion): 0/5 |
| COC(=O)C[C@H](NS(=O)(=O)c1ccc(C)cc1)C(=O)N1CCC[C@H]1C(=O)N[C@H](C=O)CCCNC(=N)N [(4-MePh)SO2 -Asp(OCH3)-Pro-Arg-al, N-(4-methylphenylsulfonyl)-L-aspartyl-(β-methyl ester)-L-prolyl-L-argininal] (Tos-Asp(OMe)-Pro-Arg-aldehyde) | 111 | 1.1 | 9.5 | – |
| N=C(N)NCCC[C@@H](C=O)NC(=O)[C@@H]1CCCN1C(=O)[C@H](CC(=O)O)NC(=O)CC1CCCCC1 [ChxAc-Asp-Pro-Arg-al, N-(1-cyclohexylacetyl)-L-aspartyl-L-prolyl-L-argininal] | 75 | 47 | 15 | – |
| CCCCS(=O)(=O)N[C@@H](CC(=O)OC)C(=O)N1CCC[C@H]1C(=O)N[C@H](C=O)CCCNC(=N)N [n-BuSO2 -Asp(OCH3)-Pro-Arg-al, N-(butylsulfonyl)-L-aspartyl-(β-methyl ester)-L-prolyl-L-argininal] | 250 | 3.7 | 15 | – |
| N=C(N)NCCC[C@@H](C=O)NC(=O)[C@@H]1CCCN1C(=O)[C@H](CC(=O)O)NC(=O)CCC1CCCCC1 [ChxPA-Asp-Pro-Arg-al, N-(3-cyclohexanepropionyl)-L-aspartyl-L-prolyl-L-argininal] | 250 | – | – | – |
